Values of other authors in patent US20020001575A1, “Nutritional system for nervous system disorders” (priority 2000, published 2002).

Conditions: autistic children and adults, 18 consecutive studies 1965-1996

Q: For Vitamin B-6, which helpfulness in autism is on record?
A: helpful in almost half of all autistic children and adults
